Source: US9283222B2 (priority 2006, dated 2016)

Target: Recombinant Human Poly(ADP-Ribose) Polymerase (PARP), PARP-1 (Homo sapiens (Human), UniProt P09874)
Conditions: read-out: PARP-1 (Ki); Table 1; text calls the values EC50s

Recombinant Human Poly(ADP-Ribose) Polymerase (PARP), PARP-1, sequence (P09874 whole entry): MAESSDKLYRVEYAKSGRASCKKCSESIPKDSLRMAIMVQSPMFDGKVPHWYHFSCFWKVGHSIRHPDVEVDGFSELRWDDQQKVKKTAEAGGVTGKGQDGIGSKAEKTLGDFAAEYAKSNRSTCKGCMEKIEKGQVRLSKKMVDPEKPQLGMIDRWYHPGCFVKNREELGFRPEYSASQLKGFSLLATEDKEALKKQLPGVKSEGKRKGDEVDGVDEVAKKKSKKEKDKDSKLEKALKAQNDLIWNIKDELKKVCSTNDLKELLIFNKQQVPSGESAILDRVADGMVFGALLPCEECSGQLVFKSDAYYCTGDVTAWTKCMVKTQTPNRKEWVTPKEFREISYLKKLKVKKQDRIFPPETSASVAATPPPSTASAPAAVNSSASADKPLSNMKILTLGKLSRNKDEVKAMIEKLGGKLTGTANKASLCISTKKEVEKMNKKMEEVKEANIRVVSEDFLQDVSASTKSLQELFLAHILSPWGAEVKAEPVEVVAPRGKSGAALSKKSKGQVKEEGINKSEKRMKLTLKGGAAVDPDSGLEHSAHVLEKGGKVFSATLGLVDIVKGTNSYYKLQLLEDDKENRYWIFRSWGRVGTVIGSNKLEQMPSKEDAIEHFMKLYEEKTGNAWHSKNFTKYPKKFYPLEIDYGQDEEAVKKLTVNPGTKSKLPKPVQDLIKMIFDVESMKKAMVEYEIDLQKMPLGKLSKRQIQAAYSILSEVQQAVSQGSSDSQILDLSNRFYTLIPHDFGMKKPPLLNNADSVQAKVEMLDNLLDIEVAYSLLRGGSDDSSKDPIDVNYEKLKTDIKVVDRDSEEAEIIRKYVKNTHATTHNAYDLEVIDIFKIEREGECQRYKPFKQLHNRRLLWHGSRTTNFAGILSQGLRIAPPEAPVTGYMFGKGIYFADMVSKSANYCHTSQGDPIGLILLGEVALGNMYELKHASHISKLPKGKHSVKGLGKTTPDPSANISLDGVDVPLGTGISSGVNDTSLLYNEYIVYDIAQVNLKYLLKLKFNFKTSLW

| Structure (SMILES) | Ki [nM] |
| --- | --- |
| CC(C)(C)c1cccc(NC(=O)c2cccc(Cc3n[nH]c(=O)c4c3CCCC4)c2)c1 [Example 335, N-(3-tert-butylphenyl)-3-((4-oxo-3,4,5,6,7,8-hexahydrophthalazin-1-yl)methyl)benzamide] | 122 |
| CC(C)(C)c1ccc(NC(=O)c2cccc(Cc3n[nH]c(=O)c4c3CCCC4)c2)cc1 [Example 336, N-(4-tert-butylphenyl)-3-((4-oxo-3,4,5,6,7,8-hexahydrophthalazin-1-yl)methyl)benzamide] | 363 |
| O=C(Nc1ccc(-c2ccccc2)cc1)c1cccc(Cc2n[nH]c(=O)c3c2CCCC3)c1 [Example 337, N-1,1′-biphenyl-4-yl-3-((4-oxo-3,4,5,6,7,8-hexahydrophthalazin-1-yl)methyl)benzamide] | 124 |
| Cc1ccc(NC(=O)c2cccc(Cc3n[nH]c(=O)c4c3CCCC4)c2)c(F)c1 [Example 338, N-(2-fluoro-4-methylphenyl)-3-((4-oxo-3,4,5,6,7,8-hexahydrophthalazin-1-yl)methyl)benzamide] | 136 |
| Cc1ccc(NC(=O)c2cccc(Cc3n[nH]c(=O)c4c3CCCC4)c2)cc1F [Example 339, N-(3-fluoro-4-methylphenyl)-3-((4-oxo-3,4,5,6,7,8-hexahydrophthalazin-1-yl)methyl)benzamide] | 120 |
| Cc1cc(F)ccc1NC(=O)c1cccc(Cc2n[nH]c(=O)c3c2CCCC3)c1 [Example 340, N-(4-fluoro-2-methylphenyl)-3-((4-oxo-3,4,5,6,7,8-hexahydrophthalazin-1-yl)methyl)benzamide] | 279 |
| Cc1cc(NC(=O)c2cccc(Cc3n[nH]c(=O)c4c3CCCC4)c2)ccc1F [Example 341, N-(4-fluoro-3-methylphenyl)-3-((4-oxo-3,4,5,6,7,8-hexahydrophthalazin-1-yl)methyl)benzamide] | 154 |
| Cc1ccc(NC(=O)c2cccc(Cc3n[nH]c(=O)c4c3CCCC4)c2)cc1Cl [Example 342, N-(3-chloro-4-methylphenyl)-3-((4-oxo-3,4,5,6,7,8-hexahydrophthalazin-1-yl)methyl)benzamide] | 134 |
| Cc1cc(NC(=O)c2cccc(Cc3n[nH]c(=O)c4c3CCCC4)c2)ccc1Cl [Example 343, N-(4-chloro-3-methylphenyl)-3-((4-oxo-3,4,5,6,7,8-hexahydrophthalazin-1-yl)methyl)benzamide] | 87 |
| Cc1ccc(NC(=O)c2cccc(Cc3n[nH]c(=O)c4c3CCCC4)c2)cc1Br [Example 344, N-(3-bromo-4-methylphenyl)-3-((4-oxo-3,4,5,6,7,8-hexahydrophthalazin-1-yl)methyl)benzamide] | 194 |
| Cc1cc(NC(=O)c2cccc(Cc3n[nH]c(=O)c4c3CCCC4)c2)ccc1Br [Example 345, N-(4-bromo-3-methylphenyl)-3-((4-oxo-3,4,5,6,7,8-hexahydrophthalazin-1-yl)methyl)benzamide] | 149 |
| COc1ccc(NC(=O)c2cccc(Cc3n[nH]c(=O)c4c3CCCC4)c2)cc1F [Example 346, N-(3-fluoro-4-methoxyphenyl)-3-((4-oxo-3,4,5,6,7,8-hexahydrophthalazin-1-yl)methyl)benzamide] | 33 |
| COc1cc(NC(=O)c2cccc(Cc3n[nH]c(=O)c4c3CCCC4)c2)cc(C(F)(F)F)c1 [Example 347, N-(3-methoxy-5-(trifluoromethyl)phenyl)-3-((4-oxo-3,4,5,6,7,8-hexahydrophthalazin-1-yl)methyl)benzamide] | 337 |
| Cc1cccc(O)c1NC(=O)c1cccc(Cc2n[nH]c(=O)c3c2CCCC3)c1 [Example 348, N-(2-hydroxy-6-methylphenyl)-3-((4-oxo-3,4,5,6,7,8-hexahydrophthalazin-1-yl)methyl)benzamide] | 259 |
| Cc1c(O)cccc1NC(=O)c1cccc(Cc2n[nH]c(=O)c3c2CCCC3)c1 [Example 349, N-(3-hydroxy-2-methylphenyl)-3-((4-oxo-3,4,5,6,7,8-hexahydrophthalazin-1-yl)methyl)benzamide] | 55 |
| Cc1ccc(NC(=O)c2cccc(Cc3n[nH]c(=O)c4c3CCCC4)c2)cc1O [Example 350, N-(3-hydroxy-4-methylphenyl)-3-((4-oxo-3,4,5,6,7,8-hexahydrophthalazin-1-yl)methyl)benzamide] | 143 |
| COc1ccc(C)cc1NC(=O)c1cccc(Cc2n[nH]c(=O)c3c2CCCC3)c1 [Example 351, N-(2-methoxy-5-methylphenyl)-3-((4-oxo-3,4,5,6,7,8-hexahydrophthalazin-1-yl)methyl)benzamide] | 277 |
| COc1cc(NC(=O)c2cccc(Cc3n[nH]c(=O)c4c3CCCC4)c2)ccc1C [Example 352, N-(3-methoxy-4-methylphenyl)-3-((4-oxo-3,4,5,6,7,8-hexahydrophthalazin-1-yl)methyl)benzamide] | 154 |
| COc1ccc(NC(=O)c2cccc(Cc3n[nH]c(=O)c4c3CCCC4)c2)cc1O [Example 353, N-(3-hydroxy-4-methoxyphenyl)-3-((4-oxo-3,4,5,6,7,8-hexahydrophthalazin-1-yl)methyl)benzamide] | 59 |
| CCOc1ccccc1NC(=O)c1cccc(Cc2n[nH]c(=O)c3c2CCCC3)c1 [Example 354, N-(2-ethoxyphenyl)-3-((4-oxo-3,4,5,6,7,8-hexahydrophthalazin-1-yl)methyl)benzamide] | 363 |

| Structure (SMILES) | Ki [nM] |
| --- | --- |
| CCCOc1ccc(NC(=O)c2cccc(Cc3n[nH]c(=O)c4c3CCCC4)c2)cc1 [Example 355, 3-((4-oxo-3,4,5,6,7,8-hexahydrophthalazin-1-yl)methyl)-N-(4-propoxyphenyl)benzamide] | 92 |
| COc1ccc(C(C)(C)C)cc1NC(=O)c1cccc(Cc2n[nH]c(=O)c3c2CCCC3)c1 [Example 356, N-(5-tert-butyl-2-methoxyphenyl)-3-((4-oxo-3,4,5,6,7,8-hexahydrophthalazin-1-yl)methyl)benzamide] | 180 |
| COc1ccc(NC(C)=O)cc1NC(=O)c1cccc(Cc2n[nH]c(=O)c3c2CCCC3)c1 [Example 357, N-(5-(acetylamino)-2-methoxyphenyl)-3-((4-oxo-3,4,5,6,7,8-hexahydrophthalazin-1-yl)methyl)benzamide] | 402 |
| O=C(Nc1ccc2c(c1)OCCO2)c1cccc(Cc2n[nH]c(=O)c3c2CCCC3)c1 [Example 358, N-2,3-dihydro-1,4-benzodioxin-6-yl-3-((4-oxo-3,4,5,6,7,8-hexahydrophthalazin-1-yl)methyl)benzamide] | 66 |
| COc1cc(OC)c(NC(=O)c2cccc(Cc3n[nH]c(=O)c4c3CCCC4)c2)cc1Cl [Example 359, N-(5-chloro-2,4-dimethoxyphenyl)-3-((4-oxo-3,4,5,6,7,8-hexahydrophthalazin-1-yl)methyl)benzamide] | 151 |
| CSc1cccc(NC(=O)c2cccc(Cc3n[nH]c(=O)c4c3CCCC4)c2)c1 [Example 360, N-(3-(methylthio)phenyl)-3-((4-oxo-3,4,5,6,7,8-hexahydrophthalazin-1-yl)methyl)benzamide] | 94 |
| CSc1ccc(NC(=O)c2cccc(Cc3n[nH]c(=O)c4c3CCCC4)c2)cc1 [Example 361, N-(4-(methylthio)phenyl)-3-((4-oxo-3,4,5,6,7,8-hexahydrophthalazin-1-yl)methyl)benzamide] | 76 |
| O=C(Nc1ccc(N2CCCCC2)cc1)c1cccc(Cc2n[nH]c(=O)c3c2CCCC3)c1 [Example 362, 3-((4-oxo-3,4,5,6,7,8-hexahydrophthalazin-1-yl)methyl)-N-(4-piperidin-1-ylphenyl)benzamide] | 185 |
| O=C(Nc1ccc(N2CCOCC2)cc1)c1cccc(Cc2n[nH]c(=O)c3c2CCCC3)c1 [Example 363, N-(4-morpholin-4-ylphenyl)-3-((4-oxo-3,4,5,6,7,8-hexahydrophthalazin-1-yl)methyl)benzamide] | 132 |
| O=C(Nc1ccccc1Nc1ccccc1)c1cccc(Cc2n[nH]c(=O)c3c2CCCC3)c1 [Example 364, N-(2-anilinophenyl)-3-((4-oxo-3,4,5,6,7,8-hexahydrophthalazin-1-yl)methyl)benzamide] | 316 |
| COc1ccc(Nc2ccc(NC(=O)c3cccc(Cc4n[nH]c(=O)c5c4CCCC5)c3)cc2)cc1 [Example 365, N-(4-((4-methoxyphenyl)amino)phenyl)-3-((4-oxo-3,4,5,6,7,8-hexahydrophthalazin-1-yl)methyl)benzamide] | 120 |
| O=C(Nc1ccc2ncccc2c1)c1cccc(Cc2n[nH]c(=O)c3c2CCCC3)c1 [Example 366, 3-((4-oxo-3,4,5,6,7,8-hexahydrophthalazin-1-yl)methyl)-N-quinolin-6-ylbenzamide] | 23 |
| O=C(Nc1cccc2c(O)cccc12)c1cccc(Cc2n[nH]c(=O)c3c2CCCC3)c1 [Example 367, N-(5-hydroxy-1-naphthyl)-3-((4-oxo-3,4,5,6,7,8-hexahydrophthalazin-1-yl)methyl)benzamide] | 45 |
| O=C(Nc1ccc2cn[nH]c2c1)c1cccc(Cc2n[nH]c(=O)c3c2CCCC3)c1 [Example 368, N-1H-indazol-6-yl-3-((4-oxo-3,4,5,6,7,8-hexahydrophthalazin-1-yl)methyl)benzamide] | 56 |
| O=C1CC[C@@H]2COc3ccc(Cc4n[nH]c(=O)c5c4CCCC5)cc3N12 [Example 371] | 14 |
| O=C(NCCc1ccccc1)c1cccc(Cc2n[nH]c(=O)c3c2CCCC3)c1 [Example 375, 3-((4-oxo-3,4,5,6,7,8-hexahydrophthalazin-1-yl)methyl)-N-(2-phenylethyl)benzamide] | 51 |
| Cc1ccccc1CCNC(=O)c1cccc(Cc2n[nH]c(=O)c3c2CCCC3)c1 [Example 376, N-(2-(2-methylphenyl)ethyl)-3-((4-oxo-3,4,5,6,7,8-hexahydrophthalazin-1-yl)methyl)benzamide] | 173 |
| Cc1cccc(CCNC(=O)c2cccc(Cc3n[nH]c(=O)c4c3CCCC4)c2)c1 [Example 377, N-(2-(3-methylphenyl)ethyl)-3-((4-oxo-3,4,5,6,7,8-hexahydrophthalazin-1-yl)methyl)benzamide] | 42 |
| Cc1ccc(CCNC(=O)c2cccc(Cc3n[nH]c(=O)c4c3CCCC4)c2)cc1 [Example 378, N-(2-(4-methylphenyl)ethyl)-3-((4-oxo-3,4,5,6,7,8-hexahydrophthalazin-1-yl)methyl)benzamide] | 28 |
